Reference: ChEMBL document CHEMBL5678796, “A highly potent and selective farnesyltransferase inhibitor ABT-100 in preclinical studies” (Anticancer Drugs, 2005)

Tests used:
[1] = Ratio of EC50 for inhibition of FTase in human HCT-15 cells expressing high level of P-gp1 using Ras as substrate assessed as inhibition of substrate post-translation processing in presence of 20% human serum to EC50 for inhibition of FTase in human HCT-15 cells expressing high level of P-gp1 using Ras as substrate assessed as inhibition of substrate post-translation processing in presence of 10% …; settings: condition cancer
Bos taurus = species on record: Bos taurus; assay: Selectivity index, ratio of IC50 for inhibition of bovine GGTase 1 to IC50 for inhibition of recombinant bovine FTase
[2] = Cmax in dog at 2.5 mg/kg, po; type: ADME, organism-based, Canis lupus familiaris; settings: in vivo
[3] = Oral bioavailability in dog at 2.5 mg/kg; type: ADME, organism-based, Canis lupus familiaris; settings: in vivo
[4] = AUC in dog at 2.5 mg/kg, po; type: ADME, organism-based, Canis lupus familiaris; settings: in vivo
HCT-116 [5] = assay: Inhibition of anchorage-independent growth in human HCT-116 cells assessed as inhibition of colony formation incubated for 14 days in presence of 10% FBS by imaging based soft agar colony formation assay; type: functional, cell-based
NIH3T3 [6] = assay: Inhibition of VEGF secretion in mouse NIH3T3 cells incubated for 72 hrs ELISA; type: functional, cell-based; settings: dose 0.1-3 µmol/L
[7] = Inhibition of FTase in human HCT-116 cells expressing low level of P-gp1 using Ras as substrate assessed as inhibition of substrate post-translation processing in presence of 20% human serum by immunoblot analysis; type: cell-based
HCT-116 [8] = assay: Antitumor activity against human HCT-116 cells xenografted in nu/nu CD1 mouse assessed as tumor volume at 25 mg/kg, sc preinoculated with cells for 5 days followed by once daily compound administration for 21 days and measured on day 25 (reference value: 1569 +/- 165 mm^3); type: functional; settings: time 25 day
HCT-116 [9] = assay: Antitumor activity against human HCT-116 cells xenografted in nu/nu CD1 mouse assessed as tumor volume at 12.5 mg/kg, sc preinoculated with cells for 5 days followed by once daily compound administration for 21 days and measured on day 25 (reference value: 1569 +/- 165 mm^3); type: functional; settings: time 25 day
[10] = Oral bioavailability in rat at 25 mg/kg; type: ADME, organism-based; settings: in vivo
[11] = Selectivity ratio of EC50 for inhibition of GGTase in H-Ras transformed mouse NIH3T3 cells using Rap 1A as substrate assessed as inhibition of substrate prenylation in presence of 10% bovine serum to EC50 for inhibition of FTase in H-Ras transformed mouse NIH3T3 cells using Ras as substrate assessed as inhibition of substrate prenylation in presence of 10% bovine serum; settings: condition cancer
HCT-116 [12] = assay: Antitumor activity against human HCT-116 cells xenografted in nu/nu CD1 mouse assessed as tumor volume at 6.25 mg/kg, sc preinoculated with cells for 5 days followed by once daily compound administration for 21 days and measured on day 25 (reference value: 1569 +/- 165 mm^3); type: functional; settings: time 25 day
[13] = Inhibition of GGTase in H-Ras transformed mouse NIH3T3 cells using Rap 1A as substrate assessed as inhibition of substrate prenylation in presence of 10% bovine serum by immunoblot analysis; type: cell-based
[14] = Inhibition of FTase in human HCT-15 cells expressing high level of P-gp1 using Ras as substrate assessed as inhibition of substrate post-translation processing in presence of 20% human serum by immunoblot analysis; type: cell-based
HCT-116 [15] = assay: Antitumor activity against human HCT-116 cells xenografted in nu/nu CD1 mouse assessed as reduction in tumor volume by measuring tumor to control ratio at 6.25 mg/kg, sc preinoculated with cells for 5 days followed by once daily compound administration for 21 days and measured on day 25; type: functional; settings: time 25 day
[16] = Inhibition of FTase in human HCT-116 cells expressing low level of P-gp1 using Ras as substrate assessed as inhibition of substrate post-translation processing in presence of 10% FBS by immunoblot analysis; type: cell-based
[17] = AUC in rat at 5 mg/kg, iv; type: ADME, organism-based; settings: in vivo
[18] = Clearance in rat at 5 mg/kg, iv; type: ADME, organism-based; settings: in vivo
Mus musculus [19] = assay: Antiangiogenic activity in human recombinant VEGF-stimulated CF1 mouse corneal model assessed as inhibition of new blood growth area at 25 mg/kg, sc prestimulated with VEGF followed by compound administration and measured on day 7 by slit lamp biomicroscopic analysis relative to control; type: functional; settings: CF1, 168 h, time 7 day
[20] = Inhibition of FTase in H-Ras transformed mouse NIH3T3 cells using Ras as substrate assessed as inhibition of substrate prenylation in presence of 10% bovine serum by immunoblot analysis; type: cell-based
Mus musculus [21] = assay: Antiangiogenic activity in human recombinant bFGF-stimulated CF1 mouse corneal model assessed as inhibition of new blood growth area at 50 mg/kg, sc prestimulated with bFGF followed by compound administration and measured on day 5 by slit lamp biomicroscopic analysis relative to control; type: functional; settings: CF1, 120 h, time 5 day
NIH3T3 [22] = assay: Inhibition of anchorage-independent growth in H-Ras transformed mouse NIH3T3 cells assessed as inhibition of colony formation incubated for 14 days in presence of 10% bovine serum by imaging based soft agar colony formation assay; type: functional, cell-based
[23] = Volume of distribution in rat at 5 mg/kg, iv; type: ADME, organism-based; settings: in vivo
[24] = Cmax in rat at 5 mg/kg, po; type: ADME, organism-based; settings: in vivo
HCT-116 [25] = assay: Antitumor activity against human HCT-116 cells xenografted in nu/nu CD1 mouse assessed as increase in life span at 6.25 mg/kg, sc preinoculated with cells for 5 days followed by once daily compound administration for 21 days and measured on day 25 relative to vehicle in time to 1 cm^3 tumor; type: functional; settings: HCT-116, 600 h, time 25 day
[26] = Inhibition of FTase in human DLD-1 cells expressing moderate level of P-gp1 using Ras as substrate assessed as inhibition of substrate post-translation processing in presence of 10% FBS by immunoblot analysis; type: cell-based
HCT-116 [27] = assay: Antitumor activity against human HCT-116 cells xenografted in nu/nu CD1 mouse assessed as increase in life span at 25 mg/kg, sc preinoculated with cells for 5 days followed by once daily compound administration for 21 days and measured on day 25 relative to vehicle in time to 1 cm^3 tumor; type: functional; settings: HCT-116, 600 h, time 25 day
HCT-116 [28] = assay: Antitumor activity against human HCT-116 cells xenografted in nu/nu CD1 mouse assessed as reduction in tumor volume by measuring tumor to control ratio at 25 mg/kg, sc preinoculated with cells for 5 days followed by once daily compound administration for 21 days and measured on day 25; type: functional; settings: time 25 day
Mus musculus [29] = assay: Antiangiogenic activity in human recombinant bFGF-stimulated CF1 mouse corneal model assessed as inhibition of new blood growth area at 25 mg/kg, sc prestimulated with bFGF followed by compound administration and measured on day 5 by slit lamp biomicroscopic analysis relative to control; type: functional; settings: CF1, 120 h, time 5 day
[30] = Inhibition of recombinant bovine FTase incubated for 30 mins in presence of [3H]FPP by SPA based Topcount scintillation plate reader analysis; design: species or system Bos taurus
HCT-116 [31] = assay: Antitumor activity against human HCT-116 cells xenografted in nu/nu CD1 mouse assessed as increase in life span at 50 mg/kg, sc preinoculated with cells for 5 days followed by once every 2 days compound administration for 11 times and measured on day 22 relative to vehicle in time to 1 cm3 tumor; type: functional; settings: HCT-116, 528 h, time 22 day
Mus musculus [32] = assay: Antiangiogenic activity in human recombinant bFGF-stimulated CF1 mouse corneal model assessed as inhibition of new blood growth area at 100 mg/kg, sc prestimulated with bFGF followed by compound administration and measured on day 5 by slit lamp biomicroscopic analysis relative to control; type: functional; settings: CF1, 120 h, time 5 day
[33] = Clearance in dog at 2.5 mg/kg, iv; type: ADME, organism-based, Canis lupus familiaris; settings: in vivo

Cn1cncc1[C@](O)(COc1ccc(C#N)cc1-c1ccc(OC(F)(F)F)cc1)c1ccc(C#N)cc1 [ABT-100]
Ratio EC50 [1]: 1.5
Ratio IC50 (Bos taurus): > 100000
Cmax [2]: 280 ng/mL
bioavailability [3]: 35.1%
AUC [4]: 2840 ng·h/mL
EC50 (HCT-116 [5]; HCT-116, 336 h): 6.1 nM
inhibition (HCT-116 [5]; time 14.0 day): Dose-Dependent Effect
inhibition (NIH3T3 [6]): Dose-Dependent Effect
EC50 [7]: 1.7 nM
Activity (HCT-116 [8]): 553 mm3
Activity (HCT-116 [9]): 721 mm3
bioavailability [10]: 30.7%
Ratio EC50 [11]: >41000
Activity (HCT-116 [12]): 899 mm3
EC50 [13]: > 30000 nM
EC50 [14]: 1.1 nM
T/C (HCT-116 [15]): 56%
EC50 [16]: 0.43 nM
AUC [17]: 3010 ng·h/mL
clearance [18]: 16.7 mL/min/kg
inhibition in vivo at 25 mg/kg (Mus musculus [19]): 8%
EC50 [20]: 0.73 nM
inhibition in vivo at 50 mg/kg (Mus musculus [21]): 34%
EC50 (NIH3T3 [22]; NIH3T3, 336 h): 0.9 nM
inhibition (NIH3T3 [22]; time 14.0 day): Dose-Dependent Effect
Vd [23]: 5.6 L/kg
Cmax [24]: 80 ng/mL
ILS at 6.25 mg/kg (HCT-116 [25]): 50%
EC50 [26]: 0.26 nM
ILS at 25 mg/kg (HCT-116 [27]): 100%
T/C (HCT-116 [28]): 32%
inhibition in vivo at 25 mg/kg (Mus musculus [29]): 32%
IC50 [30]: 0.13 nM
ILS at 50 mg/kg (HCT-116 [31]): 32%
inhibition in vivo at 100 mg/kg (Mus musculus [32]): 49%
clearance [33]: 5.67 mL/min/kg
